In patent publication US9394329B2, “Glucopyranosyl derivatives and their uses in medicine” (Sunshine Lake Pharma Co., Ltd., priority 2013, dated 2016):

What was measured:
[1] = biological target: T1, SGLT-2 (Homo sapiens, UniProt P31639); assay: SGLT-2 activity measurement ([14C]-AMG uptake in CHO cells expressing human SGLT2); format: cell-based; details: CHO cells expressing human SGLT2, 0.5 μm [14C]-AMG, 37° C. for 1 hour
T1 construct: expressed in transfected cells
T1 sequence (P31639 1-672): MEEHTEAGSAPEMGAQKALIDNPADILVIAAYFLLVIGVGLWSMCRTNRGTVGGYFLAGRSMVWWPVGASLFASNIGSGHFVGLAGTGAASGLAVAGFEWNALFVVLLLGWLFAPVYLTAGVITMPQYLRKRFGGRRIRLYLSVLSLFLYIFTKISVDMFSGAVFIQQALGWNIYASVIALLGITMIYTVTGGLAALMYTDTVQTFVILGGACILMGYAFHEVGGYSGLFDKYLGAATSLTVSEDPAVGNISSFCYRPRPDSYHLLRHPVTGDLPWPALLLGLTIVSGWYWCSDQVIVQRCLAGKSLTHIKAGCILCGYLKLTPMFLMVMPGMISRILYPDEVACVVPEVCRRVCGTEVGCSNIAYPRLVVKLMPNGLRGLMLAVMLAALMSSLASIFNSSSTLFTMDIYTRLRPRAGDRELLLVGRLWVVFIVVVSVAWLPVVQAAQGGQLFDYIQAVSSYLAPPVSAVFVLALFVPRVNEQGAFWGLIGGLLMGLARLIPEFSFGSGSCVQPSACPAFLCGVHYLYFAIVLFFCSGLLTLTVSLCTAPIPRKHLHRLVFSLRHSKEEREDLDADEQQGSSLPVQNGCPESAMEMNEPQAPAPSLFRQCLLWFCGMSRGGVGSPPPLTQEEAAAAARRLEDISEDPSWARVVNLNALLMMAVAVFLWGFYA
From the text: (§1) The following methods can be used to determine the inhibitory activity of the compounds described in the invention for SGLT-1 and SGLT-2.
(§2) ^14C-AMG solution was purchased from PerkinElmer, Cat. No. NEZ080001MC.
(§3) α-Methylglucoside was purchased from Sigma, Cat. No. M9376-100G.
(§4) N-methyl-D-glucosamine was purchased from Sigma, Cat. No. M2004-100G.
(§5) Phloridzin was purchased from Sigma, Cat. No. P3449-1G.
(§6) 96-Well plate was purchased from Corning, Cat. No. 3903.
(§7) Mock-transfected FIP-in CHO cells (3×10^4 cells) and expressing human SGLT1/SGLT2 CHO cells were seeded into 96-well plates respectively. The cells were incubated for 12 hours. Each well of the 96-well plates was washed with 150 μL of sodium-free buffer once. To each well was added 50 μL of sodium-containing buffer containing test compounds having different concentrations and […] [^14C]-AMG. The incubation mixture was incubated at 37° C. for 1 hour. To each well was added 150 μL of precooled sodium-free buffer to terminate the reaction. The cell pellet was washed with sodium-free buffer three times and the residual liquid in well was removed. To each well was added 20 μL of precooled 100 mM NaOH. The 96-well plates were vibrated at 900 rpm for 5 minutes. Scintillation fluid (80 μL) was added to each well which was then vibrated at 600 rpm for 5 minutes. The amount of ^14C-AMG was quantitatively detected using liquid scintillation.

[2] = biological target: T2, SGLT-1 (Homo sapiens, UniProt P13866); assay: SGLT-1 activity measurement ([14C]-AMG uptake in CHO cells expressing human SGLT1); format: cell-based; details: CHO cells expressing human SGLT1, 0.5 μm [14C]-AMG, 37° C. for 1 hour
T2 construct: expressed in transfected cells
T2 sequence (P13866 1-664): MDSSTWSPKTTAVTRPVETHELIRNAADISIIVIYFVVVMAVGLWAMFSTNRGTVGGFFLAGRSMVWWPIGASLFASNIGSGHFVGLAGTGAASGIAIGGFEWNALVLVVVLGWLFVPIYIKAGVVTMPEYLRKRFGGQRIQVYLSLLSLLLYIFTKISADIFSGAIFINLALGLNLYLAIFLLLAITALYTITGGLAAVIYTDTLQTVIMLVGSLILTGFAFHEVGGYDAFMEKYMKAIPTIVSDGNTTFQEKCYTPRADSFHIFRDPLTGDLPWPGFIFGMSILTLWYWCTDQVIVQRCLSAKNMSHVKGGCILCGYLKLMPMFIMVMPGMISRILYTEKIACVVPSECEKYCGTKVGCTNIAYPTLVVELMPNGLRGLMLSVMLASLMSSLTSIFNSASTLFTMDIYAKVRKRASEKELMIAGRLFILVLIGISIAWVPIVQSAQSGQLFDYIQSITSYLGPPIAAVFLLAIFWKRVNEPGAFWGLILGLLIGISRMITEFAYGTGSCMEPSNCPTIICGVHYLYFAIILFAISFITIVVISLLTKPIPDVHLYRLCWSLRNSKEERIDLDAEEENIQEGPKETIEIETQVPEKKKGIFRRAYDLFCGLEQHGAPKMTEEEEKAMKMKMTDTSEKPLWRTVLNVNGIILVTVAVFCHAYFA
From the text: as §1, §2, §3, §4, §5, §6, §7

SMILES	IC50 [1]	IC50 [2]
CCOc1ccc(Cc2cc([C@]34OCC(C(O)CC)(O3)[C@@H](O)[C@H](O)[C@H]4O)ccc2Cl)cc1 (stereo in doubt) [Example 3, (1S,2S,3S,4R,5S)-5-[4-Chloro-3 [(4-ethoxyphenyl)methyl]phenyl]-1-(1-hydroxypropyl)-6,8-dioxabicyclo[3.2.1]octane-2,3,4-triol]	9.8 nM	
C#CC(O)C12CO[C@@](c3ccc(Cl)c(Cc4ccc(OCC)cc4)c3)(O1)[C@H](O)[C@@H](O)[C@@H]2O (stereo in doubt) [Example 4, (1S,2S,3S,4R,5S)-5-[4-Chloro-3 [(4-ethoxyphenyl)methyl]phenyl]-1-(1-hydroxyprop-2-yn-1-yl)-6,8-dioxabicyclo[3.2.1]octane-2,3,4-triol]	9.39 nM	4210 nM
CCOc1ccc(Cc2cc([C@]34OC[C@](C(C)O)(O3)[C@@H](O)[C@H](O)[C@H]4O)ccc2Cl)cc1 (stereo partly drawn) [Example 1, (1R,2S,3S,4R,5S)-5-[4-Chloro-3-[(4-ethoxyphenyl)methyl]phenyl]-1-(1-hydroxyethyl)-6,8-dioxabicyclo[3.2.1]octane-2,3,4-triol]	1.65 nM	260 nM
CCOc1ccc(Cc2cc([C@]34OC[C@](C(C)(C)O)(O3)[C@@H](O)[C@H](O)[C@H]4O)ccc2Cl)cc1 [Example 2, (1S,2S,3S,4R,5S)-5-[4-Chloro-3-[(4-ethoxyphenyl)methyl]phenyl]-1-(2-hydroxypropan-2-yl)-6,8-dioxabicyclo[3.2.1]octane-2,3,4-triol]	1.14 nM	110 nM
CC#CC(O)[C@@]12CO[C@@](c3ccc(Cl)c(Cc4ccc(OCC)cc4)c3)(O1)[C@H](O)[C@@H](O)[C@@H]2O (stereo partly drawn) [Example 5, (1R,2S,3S,4R,5S)-5-[4-chloro-3 [(4-ethoxyphenyl)methyl]phenyl]-1-(1-hydroxybut-2-ynyl)-6,8-dioxabicyclo[3.2.1]octane-2,3,4-triol]		840 nM
CCOc1ccc(Cc2cc([C@]34OC[C@](C5(O)CC5)(O3)[C@@H](O)[C@H](O)[C@H]4O)ccc2Cl)cc1 [Example 6, (1S,2S,3S,4R,5S)-5-[4-Chloro-3 [(4-ethoxyphenyl)methyl]phenyl]-1-(1-hydroxycyclopropyl)-6,8-dioxabicyclo[3.2.1]octane-2,3,4-triol]	3.6 nM	26800 nM
CCOc1ccc(Cc2cc([C@]34OC[C@](C(O)CO)(O3)[C@@H](O)[C@H](O)[C@H]4O)ccc2Cl)cc1 (stereo partly drawn) [Example 7, (1R,2S,3S,4R,5S)-5-[4-Chloro-3-[(4-ethoxyphenyl)methyl]phenyl]-1-(1,2-dihydroxyethyl)-6,8-dioxabicyclo[3.2.1]octane-2,3,4-triol]	4.96 nM	
CCOc1ccc(Cc2cc([C@]34OC(C)[C@](CO)(O3)[C@@H](O)[C@H](O)[C@H]4O)ccc2Cl)cc1 (stereo partly drawn) [Example 8, (1R,2S,3S,4R,5S)-5-[4-Chloro-3-[(4-ethoxyphenyl)methyl]phenyl]-1-(hydroxymethyl)-7-methyl-6,8-dioxabicyclo[3.2.1]octane-2,3,4-triol]	51.8 nM	
CCOc1ccc(Cc2cc([C@]34OC[C@](C(O)CN)(O3)[C@@H](O)[C@H](O)[C@H]4O)ccc2Cl)cc1 (stereo partly drawn) [Example 10, (1R,2S,3S,4R,5S)-1-(2-Amino-1-hydroxy-ethyl)-5-[4-chloro-3-[(4-ethoxyphenyl)methyl]phenyl]-6,8-dioxabicyclo[3.2.1]octane-2,3,4-triol]	3730 nM	
CCOc1ccc(Cc2cc([C@]34OC[C@](C(O)CNC)(O3)[C@@H](O)[C@H](O)[C@H]4O)ccc2Cl)cc1 (stereo partly drawn) [Example 11, (1R,2S,3S,4R,5S)-5-[4-chloro-3-[(4-ethoxyphenyl)methyl]phenyl]-1-[1-hydroxy-2-(methylamino)ethyl]-6,8-dioxabicyclo[3.2.1]octane-2,3,4-triol]	498 nM	
CCOC(=O)OC(C)[C@@]12CO[C@@](c3ccc(Cl)c(Cc4ccc(OCC)cc4)c3)(O1)[C@H](O)[C@@H](O)[C@@H]2O (stereo partly drawn) [Example 12, 1-[(1S,2S,3S,4R,5S)-5-[4-Chloro-3-[(4-ethoxyphenyl)methyl]phenyl]-2,3,4-trihydroxy-6,8-dioxabicyclo[3.2.1]octan-1-yl]ethyl ethyl carbonate]	12.7 nM	
CCOc1ccc(Cc2cc([C@]34OC[C@](C(C)OC(=O)OC(C)C)(O3)[C@@H](O)[C@H](O)[C@H]4O)ccc2Cl)cc1 (stereo partly drawn) [Example 13, 1-[(1S,3S,4R,5S)-5-[4-Chloro-3-[(4-ethoxyphenyl)methyl]phenyl]-2,3,4-trihydroxy-6,8-dioxabicyclo[3.2.1]octan-1-yl]ethyl isopropyl carbonate]	44.1 nM	3760 nM
CC(O)[C@@]12CO[C@@](c3ccc(Cl)c(Cc4ccc(OC(F)(F)F)cc4)c3)(O1)[C@H](O)[C@@H](O)[C@@H]2O (stereo partly drawn) [Example 15, (1R,2S,3S,4R,5S)-5-[4-chloro-3-[[4-(trifluoromethoxy)phenyl]methyl]phenyl]-1-(1-hydroxyethyl)-6,8-dioxabicyclo[3.2.1]octane-2,3,4-triol]	1.96 nM	290 nM
CC(C)(O)[C@@]12CO[C@@](c3ccc(Cl)c(Cc4ccc(OC(F)(F)F)cc4)c3)(O1)[C@H](O)[C@@H](O)[C@@H]2O [Example 16, (1S,2S,3S,4R,5S)-5-[4-chloro-3-[[4-(trifluoromethoxy)phenyl]methyl]phenyl]-1-(1-hydroxy-1-methyl-ethyl)-6,8-dioxabicyclo[3.2.1]octane-2,3,4-triol]	2.95 nM	1310 nM
CCOc1ccc(Cc2cc([C@]34OC[C@](C(C)(C)O)(O3)[C@@H](O)[C@H](O)[C@H]4O)ccc2Cl)c(F)c1F [Example 24, (1S,2S,3S,4R,5S)-5-[4-Chloro-3-[(4-ethoxy-2,3-difluoro-phenyl)methyl]phenyl]-1-(1-hydroxy-1-methyl-ethyl)-6,8-dioxabicyclo[3.2.1]octane-2,3,4-triol]	2.19 nM	
CCOc1ccc(Cc2cc([C@]34OC[C@](C5CO5)(O3)[C@@H](O)[C@H](O)[C@H]4O)ccc2Cl)cc1 (stereo partly drawn) [Example 26, (1S,2S,3S,4R,5S)-5-[4-chloro-3-[(4-ethoxyphenyl)methyl]phenyl]-1-(oxiran-2-yl)-6,8-dioxabicyclo[3.2.1]octane-2,3,4-triol]	6.85 nM	
CCOc1ccc(Cc2cc([C@]34OC[C@](C5CNC(=O)O5)(O3)[C@@H](O)[C@H](O)[C@H]4O)ccc2Cl)cc1 (stereo partly drawn) [Example 27, 5-((1S,2S,3S,4R,5S)-5-(4-Chloro-3-(4-ethoxybenzyl)phenyl)-2,3,4-trihydroxy-6,8-dioxabicyclo[3.2.1]octan-1-yl)oxazolidin-2-one]	13.8 nM	
CCOc1ccc(C(O)c2cc([C@]34OC[C@](C(C)O)(O3)[C@@H](O)[C@H](O)[C@H]4O)ccc2Cl)cc1 (stereo partly drawn) [Example 29, (1R,2S,3S,4R,5S)-5-[4-chloro-3-[(4-ethoxyphenyl)-hydroxy-methyl]phenyl]-1-(1-hydroxyethyl)-6,8-dioxabicyclo[3.2.1]octane-2,3,4-triol]	1.46 nM	
CCOc1ccc(Cc2cccc([C@]34OC[C@](C(C)O)(O3)[C@@H](O)[C@H](O)[C@H]4O)c2)cc1 (stereo partly drawn) [Example 30, (1R,2S,3S,4R,5S)-5-[3-[(4-Ethoxyphenyl)methyl]phenyl]-1-(1-hydroxyethyl)-6,8-dioxabicyclo[3.2.1]octane-2,3,4-triol]	12.1 nM	
